Read-outs that look alike come from different tables or passages of the source.
Tests used:
[1] = system: MV4-11 cells; test: Leukemia cell proliferation inhibition test (ATPlite), MV4-11; type: cell-based; conditions: Homo sapiens, read-out: MV4-11 cell proliferation inhibition effect
How it was run: (§1)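 Molm-13 or MV4-11 cells in RPMI with 10% FBS and pen/strep, seeded at 10,000 cells per well, were exposed to serially diluted compound for 72 hours at 37° C, 5% CO2. Total cellular ATP was read by luciferase luminescence. GI50 came from sigmoid fits against the 0.1% DMSO control, in duplicate.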

[2] = system: Molm-13 cells; test: Leukemia cell proliferation inhibition test (ATPlite), Molm-13; type: cell-based; conditions: Homo sapiens, read-out: MOLM13 cell proliferation inhibition effect
How it was run: as §1

[3] = target: T1, human FLT3 protein (FLT3 (WT)) (Homo sapiens, UniProt P36888); test: FLT3 inhibition test (FLT3 enzyme inhibition, time-resolved fluorescence of substrate peptide phosphorylation); type: biochemical; conditions: read-out: FLT3 (WT) enzyme inhibition activity
T1 construct: human FLT3 protein (intracellular region, 564 to 993 aa); GST; purchased Carna Biosciences; host or cells: baculovirus expression system
T1 sequence (P36888 564-993): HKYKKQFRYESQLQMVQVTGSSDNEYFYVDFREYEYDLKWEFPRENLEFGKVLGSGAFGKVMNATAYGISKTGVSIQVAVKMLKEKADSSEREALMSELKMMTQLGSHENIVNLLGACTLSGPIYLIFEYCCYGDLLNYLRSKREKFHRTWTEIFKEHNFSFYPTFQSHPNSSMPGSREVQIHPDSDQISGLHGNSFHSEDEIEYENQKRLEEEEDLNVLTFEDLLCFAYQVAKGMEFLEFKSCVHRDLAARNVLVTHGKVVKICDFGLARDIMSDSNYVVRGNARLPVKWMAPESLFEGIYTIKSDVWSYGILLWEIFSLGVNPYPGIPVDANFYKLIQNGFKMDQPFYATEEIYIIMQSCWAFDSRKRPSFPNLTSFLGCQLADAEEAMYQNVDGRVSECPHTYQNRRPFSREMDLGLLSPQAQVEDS
How it was run: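 Wild-type human FLT3 (1.2 μg) pre-incubated with compound 15 min at 25° C in 100 mM HEPES pH 7.5, 10 mM MgCl2, 25 mM NaCl, 1 mM DTT. Reaction started with substrate peptide and ATP (final 50 μM), run 30 min at 25° C; phosphorylation read by time-resolved fluorescence.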

[4] = MV4-11, 72 h, MV4-11, 72 hours culture, ATPlite, GI50 per method
[5] = MOLM-13, 72 h, Molm-13, 72 hours culture, ATPlite, GI50 per method
[6] = GST-fused human FLT3 (564 to 993 aa), ATP 50 μM

| Structure (SMILES) | IC50 [1, 4] | IC50 [2, 5] | IC50 [3, 6] | IC50 ([1]; MV4-11, MV4-11 cell) | IC50 ([2]; MOLM-13, MOLM13 cell) | IC50 ([3]; FLT3 (WT)) |
| --- | --- | --- | --- | --- | --- | --- |
| CC(C)Oc1nc(Nc2ccc(C#N)cc2)ncc1C#C[C@@H]1CCC[C@H](NC(=O)[C@H](C)N(C)C(=O)/C=C/CN(C)C)C1 [Compound 21-22] | < 0.01 µM | < 0.01 µM | < 0.01 µM |  |  |  |
| CCNc1nc(Nc2cccc(F)c2)ncc1C#C[C@@H]1CCC[C@H](NC(=O)[C@H](C)N(C)C(=O)/C=C/CN(C)C)C1 [Compound 21-27] | < 0.01 µM | < 0.01 µM | < 0.01 µM |  |  |  |
| CCNc1nc(Nc2ccc(C#N)cc2)ncc1C#C[C@@H]1CCC[C@H](NC(=O)[C@H](C)N(C)C(=O)/C=C/CN(C)C)C1 [Compound 21-28] | < 0.01 µM | < 0.01 µM | < 0.01 µM |  |  |  |
| C[C@@H](C(=O)N[C@H]1CCC[C@@H](C#Cc2cnc(Nc3cccc(F)c3)nc2NC2CC2)C1)N(C)C(=O)/C=C/CN(C)C [Compound 21-29] | < 0.01 µM | < 0.01 µM | < 0.01 µM |  |  |  |
| CC(C)Nc1nc(Nc2cccc(F)c2)ncc1C#C[C@@H]1CCC[C@H](NC(=O)[C@H](C)N(C)C(=O)/C=C/CN(C)C)C1 [Compound 21-30] |  |  |  | < 0.01 µM | < 0.01 µM | < 0.01 µM |
| CC(C)Nc1nc(Nc2ccc(C#N)cc2)ncc1C#C[C@@H]1CCC[C@H](NC(=O)[C@H](C)N(C)C(=O)/C=C/CN(C)C)C1 [Compound 21-31] |  |  |  | < 0.01 µM | < 0.01 µM | < 0.01 µM |
| CNc1nc(Nc2ccc(OC)c(F)c2)ncc1C#C[C@@H]1CCC[C@H](NC(=O)[C@H](C)N(C)C(=O)/C=C/CN(C)C)C1 [Compound 21-32, (E)-4-(Dimethylamino)-N—((S)-1-(((1S,3R)-3-((2-((3-fluoro-4-methoxyphenyl)amino)-4-(methylamino)pyrimidin-5-yl)ethynyl)cyclohexyl)amino)-1-oxopropan-2-yl)-N-methyl-2-butenamide] |  |  |  | < 0.01 µM | < 0.01 µM | < 0.01 µM |
| CC(C)Nc1nc(Nc2ccc(C#N)cc2)ncc1C#CCCCNC(=O)[C@H](C)N(C)C(=O)/C=C/CN(C)C [Compound 21-33] |  |  |  | < 0.01 µM | < 0.01 µM | < 0.01 µM |
| CCCNc1nc(Nc2ccc3occc3c2)ncc1C#CCCCNC(=O)[C@H](C)N(C)C(=O)/C=C/CN(C)C [Compound 21-34] |  |  |  | < 0.01 µM | < 0.01 µM | < 0.01 µM |
| CCCNc1nc(NC)ncc1C#C[C@@H]1CCC[C@H](NC(=O)[C@H](C)N(C)C(=O)/C=C/CN(C)C)C1 [Compound 21-35] |  |  |  | 0.01 to 0.1 µM | 0.01 to 0.1 µM | < 0.01 µM |
| CNc1ncc(C#C[C@@H]2CCC[C@H](NC(=O)[C@H](C)N(C)C(=O)/C=C/CN(C)C)C2)c(Nc2ccc(OC)cc2)n1 [Compound 21-36] |  |  |  | < 0.01 µM | < 0.01 µM | < 0.01 µM |
| CNc1ncc(C#C[C@@H]2CCC[C@H](NC(=O)[C@H](C)N(C)C(=O)/C=C/CN(C)C)C2)c(Nc2ccc(F)cc2)n1 [Compound 21-37] |  |  |  | < 0.01 µM | < 0.01 µM | < 0.01 µM |
| CCCNc1ncc(C#CCCCNC(=O)[C@H](C)N(C)C(=O)/C=C/CN(C)C)c(Nc2ccc(OC)cc2)n1 [Compound 21-38] |  |  |  | < 0.01 µM | < 0.01 µM | < 0.01 µM |
| CNc1ncc(C#C[C@@H]2CCC[C@H](NC(=O)[C@H](C)N(C)C(=O)/C=C/CN(C)C)C2)c(NCc2ccccc2)n1 [Compound 21-39] |  |  |  | < 0.01 µM | < 0.01 µM | < 0.01 µM |
| CCCNc1nc(Nc2ccc(F)cc2)ncc1C#C[C@@H]1CCC[C@H](NC(=O)[C@H](C)N(C)C(=O)/C=C/CN(C)C)C1 [Compound 21-40] |  |  |  | < 0.01 µM | < 0.01 µM | < 0.01 µM |
| CNc1nc(Nc2ccc(F)cc2)ncc1C#C[C@@H]1CCC[C@H](NC(=O)[C@H](C)N(C)C(=O)/C=C/CN(C)C)C1 [Compound 21-41] |  |  |  | < 0.01 µM | < 0.01 µM | < 0.01 µM |

| Structure (SMILES) | IC50 [1, 4] | IC50 [2, 5] | IC50 [3, 6] | IC50 ([1]; MV4-11, MV4-11 cell) | IC50 ([2]; MOLM-13, MOLM13 cell) | IC50 ([3]; FLT3 (WT)) |
| --- | --- | --- | --- | --- | --- | --- |
| CNc1nc(Nc2ccc(OC)c(F)c2)ncc1C#CCCCNC(=O)[C@@H]1CCCN1C(=O)/C=C/CN(C)C [Compound 21-42] |  |  |  | < 0.01 µM | < 0.01 µM | < 0.01 µM |
| CNc1nc(Nc2ccc(F)cc2)ncc1C#CCCCNC(=O)[C@@H]1CCCN1C(=O)/C=C/CN(C)C [Compound 21-43] |  |  |  | < 0.01 µM | < 0.01 µM | < 0.01 µM |
| CNc1ncc(C#C[C@@H]2CCC[C@H](NC(=O)[C@H](C)N(C)C(=O)/C=C/CN(C)C)C2)c(NCc2cccc(F)c2)n1 [Compound 21-44] |  |  |  | 0.01 to 0.1 µM | 0.01 to 0.1 µM | < 0.01 µM |
| CNc1nc(Nc2ccc(C#N)cc2)ncc1C#CCCCNC(=O)[C@@H]1CCCN1C(=O)/C=C/CN(C)C [Compound 21-45] |  |  |  | < 0.01 µM | < 0.01 µM | < 0.01 µM |
| C[C@@H](C(=O)N[C@H]1CCC[C@@H](C#Cc2cnc(Nc3ccc(F)cc3)nc2NC2CC2)C1)N(C)C(=O)/C=C/CN(C)C [Compound 21-46] |  |  |  | < 0.01 µM | < 0.01 µM | < 0.01 µM |
| C[C@@H](C(=O)N[C@H]1CCC[C@@H](C#Cc2cnc(Nc3cccc(C#N)c3)nc2NC2CC2)C1)N(C)C(=O)/C=C/CN(C)C [Compound 21-47] |  |  |  | < 0.01 µM | < 0.01 µM | < 0.01 µM |
| CNc1ncc(C#CCCCNC(=O)[C@H](C)N(C)C(=O)/C=C/CN(C)C)c(Nc2ccc(OC)cc2)n1 [Compound 21-48] |  |  |  | 0.01 to 0.1 µM | < 0.01 µM | < 0.01 µM |
| CNc1nc(Nc2ccc3c(c2)c(F)nn3C)ncc1C#CCCCNC(=O)[C@H](C)N(C)C(=O)/C=C/CN(C)C [Compound 21-49] |  |  |  | < 0.01 µM | < 0.01 µM | 0.01 to 0.1 µM |
| CNc1nc(Nc2ccc3c(F)nn(C)c3c2)ncc1C#CCCCNC(=O)[C@H](C)N(C)C(=O)/C=C/CN(C)C [Compound 21-50] |  |  |  | < 0.01 µM | < 0.01 µM | < 0.01 µM |
| CNc1nc(Nc2ccc(F)cc2)ncc1C#CCCCNC(=O)[C@H](C)N(C)C(=O)/C=C/CN(C)C [Compound 21-51] |  |  |  | < 0.01 µM | < 0.01 µM | < 0.01 µM |
| CCCOc1nc(Nc2cccc(F)c2)ncc1C#C[C@@H]1CCC[C@H](NC(=O)[C@H](C)N(C)C(=O)/C=C/CN(C)C)C1 [Compound 21-52] |  |  |  | < 0.01 µM | < 0.01 µM | < 0.01 µM |
| CCCNc1nc(Nc2ccc3cn[nH]c3c2)ncc1C#CCCCNC(=O)[C@H](C)N(C)C(=O)/C=C/CN(C)C [Compound 21-53, (S,E)-N-(1-((5-(2-((1H-indazol-6-yl)amino)-4-(propylamino)pyrimidin-5-yl)-4-pentyn-1-yl)amino)-1-oxopropan-2-yl)-4-(dimethylamino)-N-methyl-2-butenamide] |  |  |  | < 0.01 µM | < 0.01 µM | < 0.01 µM |
| CCCNc1nc(Nc2cccc3[nH]ncc23)ncc1C#CCCCNC(=O)[C@H](C)N(C)C(=O)/C=C/CN(C)C [Compound 21-54] |  |  |  | 0.01 to 0.1 µM | 0.1 to 1 µM | 0.01 to 0.1 µM |
| CCCNc1nc(Nc2ccc3[nH]ncc3c2)ncc1C#CCCCNC(=O)[C@H](C)N(C)C(=O)/C=C/CN(C)C [Compound 21-55] |  |  |  | < 0.01 µM | < 0.01 µM | < 0.01 µM |
| CCCNc1nc(Nc2cccc3cn[nH]c23)ncc1C#CCCCNC(=O)[C@H](C)N(C)C(=O)/C=C/CN(C)C [Compound 21-56] |  |  |  | 0.1 to 1 µM | 0.1 to 1 µM | 0.01 to 0.1 µM |

Source: patent US9145415B2, “Nitrogen-containing heterocyclic compound or salt thereof” (FUJIFILM Corporation, priority 2012, dated 2015)
